In patent US8796301B2, “Therapeutic or prophylactic agent for dyskinesia” (Toray Industries, Inc., priority 2007, dated 2014):

Key:
[1] = tested on: L-DOPA-induced dyskinesia in a rat model of Parkinson's disease; test: L-DOPA-induced dyskinesia in a rat model of Parkinson's disease (6-hydroxydopamine lesion), dyskinesia score; format: in vivo
dyskinesia = settings: WO00/003715; cited from earlier work

Compound | effect on L-DOPA-induced dyskinesia (dyskinesia score vs control score) ([1]; 10 μg/kg subcutaneous, simultaneously with L-DOPA 20 mg/kg oral, FIG. 1) | effect on dyskinesia (dyskinesia) | effect on L-DOPA-induced dyskinesia (dyskinesia score vs control score) ([1]; 10 mg/kg subcutaneous, with L-DOPA 20 mg/kg oral, FIG. 2, FIG. 3, FIG. 4) | effect on L-DOPA-induced dyskinesia (dyskinesia score vs control score) ([1]; 30 mg/kg subcutaneous, with L-DOPA 20 mg/kg oral, FIG. 4)
CN(C(=O)/C=C/c1ccoc1)[C@@H]1CC[C@@]2(O)[C@H]3Cc4ccc(O)c5c4[C@@]2(CCN3CC2CC2)[C@H]1O5.Cl [Compound 1, (−)-17-(cyclopropylmethyl)-3,14β-dihydroxy-4,5α-epoxy-6β-[N-methyl-trans-3-(3-furyl)acrylamido]morphinan hydrochloride] | significantly suppressed dyskinesia |  |  | 
COC(=O)/C=C/C(=O)N[C@@H]1CC[C@@]2(O)[C@H]3Cc4ccc(O)c5c4[C@@]2(CCN3CC2CC2)[C@H]1O5 [β-funaltrexamine] |  | suppresses dyskinesia | did not influence L-DOPA-induced dyskinesia at all | did not influence L-DOPA-induced dyskinesia at all
